In patent US7326700B2, “Cyclohexenyl phenyl carboxamides tocolytic oxytocin receptor antagonists” (Wyeth, priority 2001, dated 2008):

These compounds were tested against T1, human oxytocin receptor (Homo sapiens, UniProt P30559) (assay: Oxytocin binding in CHO cell membranes expressing human oxytocin receptors ([3H]oxytocin radioligand binding)). Settings: 100 nM.
T1 construct: host or cells: CHO cells, stably transfected (pcDNA3.1 vector)
T1 sequence (P30559 1-389): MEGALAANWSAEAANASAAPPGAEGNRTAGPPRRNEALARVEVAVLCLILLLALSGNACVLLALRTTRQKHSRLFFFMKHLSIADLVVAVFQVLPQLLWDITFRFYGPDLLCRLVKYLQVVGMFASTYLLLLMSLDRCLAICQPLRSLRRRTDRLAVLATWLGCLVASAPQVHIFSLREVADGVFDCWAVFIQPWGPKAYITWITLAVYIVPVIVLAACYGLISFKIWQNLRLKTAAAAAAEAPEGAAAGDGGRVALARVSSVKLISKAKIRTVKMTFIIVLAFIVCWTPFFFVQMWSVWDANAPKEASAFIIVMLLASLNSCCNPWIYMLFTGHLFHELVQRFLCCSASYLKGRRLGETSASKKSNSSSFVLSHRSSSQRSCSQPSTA
Source text: Chinese Hamster Ovary (CHO) cells stably transfected with the human oxytocin recptor (cf. Tanizawa et al., U.S. Pat. No. 5,466,584 (1995) to Rohto Pharmaceutical Co. Ltd., Osaka, Japan) were obtained from M. Thibonnier, Case Western Reserve University School of Medicine, Cleveland, Ohio.
CHO cells transfected with the human oxytocin receptors obtained from M. Thibonnier (pcDNA3.1 vector) are allowed to grow to confluency (approx. >90%) in T-150 flasks under sterile conditions, in a cell culture medium consisting of F-12 Nutrient Mixture (HAM) with L-glutamine (Gibco Cat. #11765-054) containing 15 mM HEPES (Gibco Cat. #15630-080), 1% antibiotic/antimycotic (add 5 mL 1 00×, Gibco Cat. #15240-062 per 500 mL F-12), 400 μg/mL of Geneticin (add 4 mL of 50 mg/mL per 500 mL F-12) and 10% Fetal Bovine Serum (Qualified, heat inactivated, Gibco Cat. #16140-063). The medium is removed by aspiration and the cells are washed with 10 mL of Hank's Balanced Salt solution (Gibco Cat. #14175-095). The salt solution is removed by aspiration and the cells trypsinized with 5 mL of trypsin-EDTA (0.05% trypsin, 0.53 mM EDTA-4Na, Gibco Cat. #25300-070) for 1 min The trypsin is removed by aspiration and the cells dislodged by tapping. Cell Culture medium (e.g. 30 mL for 1:30 split) is immediately added and mixed well to inactivate trypsin. 1 mL of detached cells is added to new culture flasks containing fresh Cell Culture medium (e.g. into 25 mL per T-150 flask), and mixed gently. The cells are incubated at 37° C. in 5% CO2. The medium is changed at 3 to 4 days interval (or as appropriate). The cells grow to confluency (approx. >75%-95%) within 7-8 days. All steps are done under sterile conditions.
The cells are washed twice gently with Hank's Balanced Salt solution (eg, use 10 mL per T-150 flask). The excess solution is removed and the cells bathed for 15-30 min. in an enzyme-free Cell Dissociation Buffer (eg, use 8 mL Hank's Based, Gibco Cat. #13150-016 per T-150 flask) until cells are loosened. The contents are transferred to centrifuge tubes (50 mL size) kept in ice bath. All subsequent steps are done at 4° C. The tubes are centrifuged at 300×g for 15 min (1380 rpm on SORVAL, Model RT6000D, using rotor for 50 mL tubes). The supernatant is discarded and the cells suspended in homogenizing buffer (10 mM Tris-HCl containing 0.25 M sucrose and 1 mM EDTA, pH 7.4) ensuring that the volume of the buffer is about ten times the volume of the cell pellet. The cells are pooled into a centrifuge tube (50 mL) and homogenized with a Polytron at setting 6 for 10 sec. The homogenate is transferred into a Potter-Elvjehm homogenizer and homogenized with 3 strokes. The homogenate is centrifuged at 1500×g for 10 min at 4° C. (3100 rpm using SORVAL, model RT6000D, using rotor for 50 mL tubes). The pellet is discarded. The supernatant is centrifuged at 100,000×g for 60 min. at 4° C. (Beckman L8-80M ultracentrifuge; spin at 37,500 rpm with rotor type 70 Ti for 50 mL tubes; 38,000 rpm with type 80 Ti for 15 mL tubes; or 35,800 rpm with rotor type 45Ti). The supernantant is discarded and the pellet suspended in 3 to 4 mL of Tris buffer (50 mM TRIS-HCl, pH 7.4). The protein content is estimated by the Bradford or Lowry method. The volume of the membrane suspension is adjusted with the membrane buffer (50 mM Tris-HCl containing 0.1% BSA and 0.1 mM PMSF) to give 3.0 mg/mL (or as appropriate) of protein. The membranes are aliquoted and stored at −70° C.
In wells of a 96-well format microtiter plate, is added 90, 110 or 130 μL (to make up a final volume of 200 μL) of assay buffer containing 50 mM of Tris-HCl (pH 7.4), […], 1 mg % aprotinin, 1 mg % leupeptin, 2 mg % 1,10-phenanthroline, 10 mg % trypsin inhibitor, and 0.1 mM PMSF. The inhibitors are added on the day of the experiment. The components are mixed at room temperature, and then kept in ice bath following adjustment of the pH to 7.4. […]

Question: Which “OT % inhibition @ 100 nM” value does the source give for `Cc1cc(C(=O)N2Cc3ccc(C(=O)NCCN4CCCCC4)n3Cc3ccccc32)ccc1C1=CCCCC1` [Example 20, 10-[4-(1-Cyclohex-1-en-1-yl)-3-methylbenzoyl]-N-[2-(1-piperidinyl)ethyl]-10,11-dihydro-5H-pyrrolo[2,1-c][1,4]benzodiazepine-3-carboxamide] here?
Answer: 52%

Question: `Cc1cc(C(=O)N2Cc3ccc(C(=O)NCCC4CCCN4C)n3Cc3ccccc32)ccc1C1=CCCCC1` (stereo not drawn) [Example 21, 10-[4-(1-Cyclohex-1-en-1-yl)-3-methylbenzoyl]-N-[2-(1-methyl-2-pyrrolidinyl)ethyl]-10,11-dihydro-5H-pyrrolo[2,1-c][1,4]benzodiazepine-3-carboxamide] was tested. Which “OT % inhibition @ 100 nM” value did it give?
Answer: 57%

Question: For `Cc1cc(C(=O)N2Cc3ccc(C(=O)N4CCN(CCN(C)C)CC4)n3Cc3ccccc32)ccc1C1=CCCCC1` [Example 22, {10-[4-(1-Cyclohex-1-en-1-yl)-3-methylbenzoyl]-10,11-dihydro-5H-pyrrolo[2,1-c][1,4]benzodiazepin-3-yl}{4-[2-(dimethylamino)ethyl]-1-piperazinyl}methanone], which “OT % inhibition @ 100 nM” value is on record?
Answer: 92%

Question: `Cc1cc(C(=O)N2Cc3ccc(C(=O)N4CCN(CCN5CCOCC5)CC4)n3Cc3ccccc32)ccc1C1=CCCCC1` [Example 23, {10-[4-(1-Cyclohex-1-en-1-yl)-3-methylbenzoyl]-10,11-dihydro-5H-pyrrolo[2,1-c][1,4]benzodiazepin-3-yl}{4-[2-(4-morpholinyl)ethyl]-1-piperazinyl}methanone] was tested. Which “OT % inhibition @ 100 nM” value did it give?
Answer: 79%

Question: Which “OT % inhibition @ 100 nM” value does the source give for `C=CCN1CCN(C(=O)c2ccc3n2Cc2ccccc2N(C(=O)c2ccc(C4=CCCCC4)c(C)c2)C3)CC1` [Example 24, (4-Allyl-1-piperazinyl){10-[4-(1-cyclohex-1-en-1-yl)-3-methylbenzoyl]-10,11-dihydro-5H-pyrrolo[2,1-c][1,4]benzodiazepin-3-yl}methanone] here?
Answer: 68%

Question: Which “OT % inhibition @ 100 nM” value does the source give for `Cc1cc(C(=O)N2Cc3ccc(C(=O)N4CCN(C(C)C)CC4)n3Cc3ccccc32)ccc1C1=CCCCC1` [Example 25, {10-[4-(1-Cyclohex-1-en-1-yl)-3-methylbenzoyl]-1 0,11-dihydro-5H-pyrrolo[2,1-c][1,4]benzodiazepin-3-yl}(4-isopropyl-1-piperazinyl)methanone] here?
Answer: 71%

Question: How did the “OT % inhibition @ 100 nM” value turn out when `Cc1cc(C(=O)N2Cc3ccc(C(=O)N4CCC[C@H]4CN4CCCC4)n3Cc3ccccc32)ccc1C1=CCCCC1` [Example 26, {10-[4-(1-Cyclohex-1-en-1-yl)-3-methylbenzoyl]-10,11-dihydro-5H-pyrrolo[2,1-c][1,4]benzodiazepin-3-yl}[(2S)-2-(1-pyrrolidinylmethyl)pyrrolidinyl]methanone] was run?
Answer: 101%

Question: `Cc1cc(C(=O)N2Cc3ccc(C(=O)N4CC[C@@H](N(C)C)C4)n3Cc3ccccc32)ccc1C1=CCCCC1` [Example 27, {10-[4-(1-Cyclohex-1-en-1-yl)-3-methylbenzoyl]-10,11-dihydro-5H-pyrrolo[2,1-c][1,4]benzodiazepin-3-yl}[(3R)-3-(dimethylamino)pyrrolidinyl]methanone] was tested. Which “OT % inhibition @ 100 nM” value did it give?
Answer: 100%

Same assay, conditions: value in parentheses, read-out: OT (IC50)

Question: Which IC50 does the source give for “{10-[4-(1-Cyclohexen-1-yl)-3-methylbenzoyl]-10,11-dihydro-5H-pyrrolo[2,1-c][1,4]benzodiazepin-3-yl}(4-methyl-piperazin-1-yl)methanone [Example 12]” here?
Answer: 32.6 nM
